The results in this text go back to PubChem BioAssay (NCI).

Each structure is given as a SMILES string.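 How tested: cells in 96-well plates exposed to compound for 48 hours at five concentrations. GI50 is the concentration that inhibits growth by half. TGI denotes the concentration required for complete inhibition of growth.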 Where a SMILES comes first, the peptide text is derived from it. [ ]: non-standard residue; d: D form. The star is where a group is joined. ξ: configuration not given here. NMeY = CN[C@@H](Cc1ccc(O)cc1)C(=O)O; Cbz = O=C(OCc1ccccc1)*; ξA = CC(N)C(=O)O

Test systems include CCRF-CEM leukemia; EKVX NSCLC; HCC-2998 colon; HT29 colon; IGROV1 ovarian; SF-268 CNS; SF-295 CNS; SF-539 CNS; SK-MEL-2 melanoma; TK-10 renal.
What all share (test): DTP human tumour cell line panel, 48 h

As usually defined, the TGI is the concentration giving total growth inhibition. A word on the GI50: it is the concentration giving 50% growth inhibition.

With `CCOC(=O)/C=C1\Nc2ccccc2C12CCc1c([nH]c3ccccc13)C2C(=O)OCC` (configuration not stated), the TGI with CCRF-CEM leukemia, in the test with EKVX NSCLC, in the test on HCC-2998 colon, in the test on HT29 colon, in the test with IGROV1 ovarian and in the test on SF-268 CNS was more than 100 µM throughout. In addition, the TGI with SF-295 CNS, in the test with SF-539 CNS, with SK-MEL-2 melanoma and in the test with TK-10 renal was more than 100 µM throughout.
As to `C#CC(C)(C)Oc1cc(OC)c2c(=O)c3ccccc3n(C)c2c1`, the TGI is 27.5 µM with CCRF-CEM leukemia; 74.5 µM in the test on EKVX NSCLC; more than 100 µM with HCC-2998 colon; more than 100 µM with HT29 colon; 45 µM with IGROV1 ovarian; 73 µM in the test with SF-268 CNS. The TGI in the test on SF-295 CNS is 51.8 µM; in the test with SF-539 CNS it was 76 µM; with SK-MEL-2 melanoma, 35.7 µM; with TK-10 renal, more than 100 µM.
As for `Cc1cccc(NC(=O)CC(=O)N2N=C(N3c4ccccc4Sc4ccccc43)CC2c2ccccc2)c1` (configuration not stated), the TGI with CCRF-CEM leukemia, in the test with EKVX NSCLC, in the test with HCC-2998 colon, in the test with HT29 colon, in the test on IGROV1 ovarian and with SF-268 CNS was more than 100 µM in each case. For the same compound, the TGI in the test with SF-295 CNS, with SF-539 CNS, in the test with SK-MEL-2 melanoma and in the test with TK-10 renal was more than 100 µM in each case.
For the compound `CC1CN=C(c2cccc(OCc3ccc(COc4cccc(C5=NCC(C)N5)c4)cc3)c2)N1` (configuration not stated), the TGI was 66.8 µM in the test with CCRF-CEM leukemia; more than 100 µM with EKVX NSCLC; 48.4 µM with HCC-2998 colon; more than 100 µM with HT29 colon; more than 100 µM in the test on IGROV1 ovarian; more than 100 µM in the test on SF-268 CNS. For the same compound, the TGI with SF-295 CNS was more than 100 µM; in the test with SF-539 CNS, 98.7 µM; in the test with SK-MEL-2 melanoma, 79.7 µM; in the test with TK-10 renal, more than 100 µM.
On to `CC(=O)N[C@@H](Cc1ccc(O)cn1)C(=O)NCc1ccc2c(c1)OCO2`, for which the TGI with CCRF-CEM leukemia, in the test with EKVX NSCLC, with HCC-2998 colon, with HT29 colon, with IGROV1 ovarian and in the test on SF-268 CNS was more than 100 µM in each case. Moreover, the TGI in the test on SF-295 CNS, in the test with SF-539 CNS, in the test with SK-MEL-2 melanoma and in the test on TK-10 renal was more than 100 µM in each case.
In the case of `c1ccc2c(c1)CC1c3[nH]c4ccccc4c3CCN21` (configuration not stated), the TGI with CCRF-CEM leukemia, with EKVX NSCLC, with HCC-2998 colon, in the test with HT29 colon, in the test with IGROV1 ovarian and with SF-268 CNS was more than 10 µM in each case. Besides, the TGI with SF-295 CNS, in the test with SF-539 CNS, with SK-MEL-2 melanoma and with TK-10 renal was more than 10 µM in each case.
Turning to `COc1ccc(C[C@@H](C(=O)NCC(N)=O)N(C)C(=O)[C@@H]2CCCN2C(=O)[C@H](CC(C)C)NC(=O)C(C)NC(=O)OCc2ccccc2)cc1` (some centres not stated) (Cbz-[ξA]LP[NMeY](Me)G-NH2), the TGI in the test on CCRF-CEM leukemia, in the test on EKVX NSCLC, with HCC-2998 colon, in the test with HT29 colon, in the test with IGROV1 ovarian and in the test on SF-268 CNS was more than 100 µM each time. Moreover, the TGI in the test on SF-295 CNS, in the test on SF-539 CNS, with SK-MEL-2 melanoma and in the test with TK-10 renal was more than 100 µM in each case.
With `Cc1nc2c(n1Cc1ccc(Cl)cc1)C(=O)c1ccccc1C2=O`, the TGI with CCRF-CEM leukemia, in the test on EKVX NSCLC, with HCC-2998 colon, in the test on HT29 colon, with IGROV1 ovarian and in the test on SF-268 CNS was more than 75 µM throughout. In addition, the TGI in the test with SF-295 CNS, in the test with SF-539 CNS, in the test with SK-MEL-2 melanoma and in the test with TK-10 renal was more than 75 µM each time.
Take `CN(C)c1ccc(C(=NNC(=O)c2cc3ccccc3[nH]2)c2ccc(N(C)C)cc2)cc1`: the TGI is more than 25.2 µM with CCRF-CEM leukemia; more than 100 µM in the test with EKVX NSCLC; 1.48 µM in the test on HCC-2998 colon; 9.93 µM in the test on HT29 colon; 25.9 µM in the test with IGROV1 ovarian; 5.31 µM in the test on SF-268 CNS. The TGI in the test with SF-295 CNS was 5.52 µM; in the test with SF-539 CNS, 8.04 µM; in the test with SK-MEL-2 melanoma, 3.97 µM; in the test with TK-10 renal it was 30.1 µM.
Take `O=C1CCC2(CC1)Cc1ccccc1C2O` (configuration not stated): the TGI in the test with CCRF-CEM leukemia, in the test with EKVX NSCLC, in the test with HCC-2998 colon, in the test with HT29 colon, with IGROV1 ovarian and in the test on SF-268 CNS was more than 100 µM in each case. Moreover, the TGI in the test with SF-295 CNS, in the test on SF-539 CNS, in the test on SK-MEL-2 melanoma and with TK-10 renal was more than 100 µM throughout.
With `O=C1c2ccccc2NC2C(O)c3ccccc3N12` (configuration not stated), the TGI with CCRF-CEM leukemia is 54.6 µM; in the test with EKVX NSCLC, more than 100 µM; in the test with HCC-2998 colon it was more than 100 µM; in the test on HT29 colon, more than 100 µM; with IGROV1 ovarian, more than 100 µM; in the test with SF-268 CNS it was more than 100 µM. Also, the TGI with SF-295 CNS, in the test with SF-539 CNS, in the test on SK-MEL-2 melanoma and with TK-10 renal was more than 100 µM in each case.
Regarding `CC1=NN(c2nc(N)nc(/C(C#N)=C/c3ccncc3)n2)C(C)(C)C1`, the TGI in the test on CCRF-CEM leukemia, in the test with EKVX NSCLC, in the test with HCC-2998 colon, in the test on HT29 colon, in the test with IGROV1 ovarian and with SF-268 CNS was more than 100 µM throughout. The TGI in the test with SF-295 CNS, with SF-539 CNS, in the test with SK-MEL-2 melanoma and in the test on TK-10 renal was more than 100 µM in each case.
For `O=C1C/C(=C\O)C(=O)c2ccccc2N1`, the TGI in the test on CCRF-CEM leukemia, with EKVX NSCLC, in the test on HCC-2998 colon, in the test with HT29 colon, with IGROV1 ovarian and in the test with SF-268 CNS was more than 100 µM in each case. Besides, the TGI in the test with SF-295 CNS, in the test on SF-539 CNS, with SK-MEL-2 melanoma and with TK-10 renal was more than 100 µM each time.
Regarding `O=c1oc2ccccc2cc1-c1nc2ccc([N+](=O)[O-])cc2o1`, the TGI with CCRF-CEM leukemia, with EKVX NSCLC, in the test on HCC-2998 colon, with HT29 colon, with IGROV1 ovarian and in the test with SF-268 CNS was more than 100 µM throughout. Besides, the TGI with SF-295 CNS, in the test with SF-539 CNS, in the test with SK-MEL-2 melanoma and in the test on TK-10 renal was more than 100 µM in each case.
Regarding `O=C1c2cc3c(cc2CC12Cc1cc4c(cc1C2)CCC4)CCC3`, the concentration for total growth inhibition (TGI) in the test with CCRF-CEM leukemia, with EKVX NSCLC, in the test on HCC-2998 colon, with HT29 colon, with IGROV1 ovarian and in the test with SF-268 CNS was more than 100 µM each time. The TGI in the test with SF-295 CNS, in the test on SF-539 CNS, in the test on SK-MEL-2 melanoma and in the test with TK-10 renal was more than 100 µM in each case.
For the compound `COc1cn2c(cc1=O)COc1ccc(-c3ccccc3)cc1-2`, the figures for the GI50 with CCRF-CEM leukemia and in the test with SF-539 CNS were 40.2 µM and 43.6 µM, respectively. The TGI in the test with CCRF-CEM leukemia, in the test with EKVX NSCLC, with HCC-2998 colon, in the test with HT29 colon, in the test on IGROV1 ovarian and in the test on SF-268 CNS was more than 100 µM throughout. Moreover, the TGI is more than 100 µM in the test on SF-295 CNS, more than 100 µM in the test with SF-539 CNS, more than 100 µM with SK-MEL-2 melanoma and more than 79.8 µM with TK-10 renal.
Turning to `CCOC(=O)c1cc(-c2ccc(OC)c(OC)c2)c[nH]1`, the TGI in the test with CCRF-CEM leukemia, with EKVX NSCLC, in the test with HCC-2998 colon, in the test with HT29 colon, in the test with IGROV1 ovarian and in the test with SF-268 CNS was more than 10 µM each time. Also, the concentration for total growth inhibition (TGI) in the test on SF-295 CNS, in the test on SF-539 CNS, with SK-MEL-2 melanoma and in the test with TK-10 renal was more than 10 µM in each case.
As to `O=C(c1ccccc1F)c1c(NCc2ccccc2)c(=O)c1=O`, the TGI with CCRF-CEM leukemia, in the test with EKVX NSCLC, in the test on HCC-2998 colon, with HT29 colon, in the test with IGROV1 ovarian and in the test on SF-268 CNS was more than 100 µM in each case. The TGI in the test on SF-295 CNS, in the test on SF-539 CNS, in the test on SK-MEL-2 melanoma and in the test on TK-10 renal was more than 100 µM in each case.
For `c1ccc2c3c(ccc2c1)CSCc1ccc2ccccc2c1-3`, the TGI in the test on CCRF-CEM leukemia, in the test on EKVX NSCLC, with HCC-2998 colon, with HT29 colon, with IGROV1 ovarian and with SF-268 CNS was more than 100 µM in each case. Further, the TGI with SF-295 CNS, in the test with SF-539 CNS, with SK-MEL-2 melanoma and in the test on TK-10 renal was more than 100 µM in each case.
As for `CCCCN(CCCC)C(=NCc1ccccc1)NC#N`, the TGI was found to be 37.1 µM in the test on CCRF-CEM leukemia; 73.5 µM in the test with EKVX NSCLC; 49.7 µM in the test with HCC-2998 colon; 30.1 µM in the test with HT29 colon; 59.2 µM in the test on IGROV1 ovarian; 60.3 µM in the test on SF-268 CNS. Besides, the TGI in the test with SF-295 CNS came out at 35.6 µM; with SF-539 CNS it was 41.2 µM; with SK-MEL-2 melanoma it was 39 µM; in the test on TK-10 renal, 85.2 µM.
